Six molecules from patent publication US20100144779A1, “Marine Alkalod Makaluvamines and Derivatives Thereof” (THE UAB RESEARCH FOUNDATION, priority 2007, published 2010) can be followed below.

Structures are written as SMILES. “Also recorded” adds a separate entry of the source. Like-named read-outs stand apart in the source and are kept apart here.

Test [1] deals with T1, topoisomerase II (Homo sapiens, UniProt P11388).
T1 construct: purchased TopoGEN, Inc., Port Orange, Fla
Briefly: Topoisomerase II drug screening kit (relaxation of plasmid DNA). It is filed as biochemical. Also noted: key to Topoisomerase II Inhibition: — none; + low; ++ moderate; +++ strong. As to conditions: for Topoisomerase II Inhibition: 100 μM drug compound, topoisomerase II (4U), 500 ng plasmid DNA; for inhibition of topoisomerase II catalytic activity (in words): 100 μM makaluvamine derivative. An excerpt:
In order to determine the effect of the makaluvamine derivatives of the present disclosure, the synthesized makaluvamine derivatives were screened for their ability to inhibit topoisomerase II activity in vitro. Topoisomerase II functions by generating a double-stranded DNA break followed by resealing of the break. Topoisomerase II inhibitors interfere with the breakage-rejoining reaction thereby trapping the enzyme in a cleavage complex. In order to determine if the disclosed makaluvamine derivatives inhibited topoisomerase II activity, nine of the derivatives were tested for topoisomerase II inhibitory activity using a topoisomerase-II drug screening kit (TopoGEN, Inc., Port Orange, Fla.) according to the manufacturer's instructions. The screening kit uses a supercoiled plasmid DNA substrate (pRYG) which contains one topoisomerase II cleavage/recognition site. […] Relaxed DNA was separated using non-ethidium bromide (EtBr) agarose gels, then stained with EtBr and quantified using Kodak Gel Logic Imaging System and Molecular Imaging software (Eastman Kodak Co., Rochester, N.Y.). Inhibition of relaxation of plasmid DNA or catalytic activity was reported as; − none, + low, ++ moderate, or +++ strong.

For test [2], the system named is MCF-7. As to the kind of experiment: XTT cytotoxicity assay. It is filed as cell-based, human. Here is the method:
(§1) In initial experiments, compounds 4a-g and 7c-g were evaluated for their cytotoxicity against human breast cancer cell lines MCF-7 and MDA-MB-468 and human colon cancer cell line HCT-116. The makaluvamine compounds provided in Table 2 were also evaluated for their cytotoxicity against human breast cancer cell lines MCF-7. Compound nos. 8 and 27-33 were not evaluated in this experiment. Cells were obtained from ATCC (Manassas, Va.). For each derivative the IC50 value was determined using data generated from 2-4 independent tetrazolium-based (XTT) cytotoxicity assays (R & D Systems Inc., Minneapolis, Minn.) according to the manufacturer's instructions. […] MCF-7, MDA-MD-468 and HCT-116 cells were grown at 37 degrees C. in a humidified atmosphere with complete growth media supplemented with fetal bovine serum. Growth media was changed 2-3 times per week as required.
A general note: Formazan colour is commonly taken as a measure of viable cells.

The test system of test [3] is MDA-MB-468. Briefly: XTT cytotoxicity assay. As to conditions: read-out: Inhibition of Cancer Cell Proliferation (IC50) MDA-MB-468. Type of test: cell-based, human. The method, then: as §1
Test [4] concerns HCT-116. Briefly: XTT cytotoxicity assay. It is filed as cell-based, human. Conditions: read-out: Inhibition of Cancer Cell Proliferation (IC50) HCT-116. The method, then: as §1
In test [5] the test system is MCF7 cells. As to the kind of experiment: MTT growth inhibition assay. It is filed as cell-based, human. As to conditions: Table 5, MTT, 72 hr; for IC50: read-out: Growth inhibitory activity (IC50) in MCF7 cells.
Protocol: The cell lines were obtained from the American Type Culture Collection (Rockville, Md.) and were grown as follows: MCF-7 (p53 wt) breast cancer cells were grown in DMEM media containing 1 mM non-essential amino acids, Earle's BSS, 1 mM Na pyruvate, and 10 mg/L bovine insulin.
All media contained 10% FBS and 1% penicillin/streptomycin unless otherwise specified. The effects of disclosed compounds on human cancer cell growth, expressed as the percentage of cell survival, were determined by the MTT [3-(4,5-Dimethyl-2-thiazolyl)-2,5-diphenyl-2H-tetrazolium bromide] assay. Cells were grown in 96-well plates and exposed to the test compounds (0, 0.01, 0.1, 1, 10, 100 μM) for 72 hr followed by addition of 10 μL MTT solution (5 mg/mL; Sigma; St. Louis, Mo.) to each well. The plates were incubated for 2-4 hr at 37° C. The supernatant was then removed and formazan crystals were dissolved with 100 μL of DMSO. The absorbance at 570 nm was recorded with an OPTImax microplate reader (Molecular Devices; Sunnyvale, Calif.). The cell survival percentages were calculated by dividing the mean OD of compound containing wells by that of DMSO-control wells. Three separate experiments were accomplished to determine the IC50.
The subject of test [6] is p21. Briefly: Protein expression, Western blot in MCF-7 cells. It is filed as cell-based, human. Conditions: 1 μM, 6 h (FIG. 4A). The method, then:
(§2) In FIG. 4A, MCF-7 cells were exposed to 1 μM concentration of the indicated compounds for 6 hours. Western blots were probed with antibodies specific for the proteins indicated. Numbers below each lane show densitometry readings for each lane as compared to control. […] Western blots were probed with antibodies specific for the proteins indicated.
(§3) To determine the disclosed compounds effect on protein expression in human breast cancer cells, cultured MCF-7 cells were exposed to various concentrations of the test compounds for 6 h (FIG. 4A) or 24 h (FIG. 4B). Cell lysates were fractionated with identical amounts of protein by SDS-PAGE and transferred to Bio-Rad trans-Blot nitrocellulose membranes (Bio-Rad Laboratories, Hercules, Calif.). The nitrocellulose membrane was incubated in blocking buffer (Tris-buffered saline containing 0.1% Tween 20 and 5% nonfat milk) for 1 h at room temperature, then with the appropriate primary antibody overnight at 4° C. or 2 h at room temperature with gentle shaking. Finally, the membrane was washed three times with the washing buffer (Tris-buffered saline containing 0.1% Tween 20) for 15 min, incubated with goat anti mouse/rabbit IgG-horseradish peroxidase-conjugated antibody (Bio-Rad) for 1 h at room temperature, and washed again (in triplicate). The protein of interest was detected by enhanced chemiluminescence reagents from PerkinElmer LAS, Inc (Boston, Mass.).
(In general: In western blotting, separated proteins are transferred to a membrane and probed.)

Test [7] has as its system p53. As to the kind of experiment: Protein expression, Western blot in MCF-7 cells. Type of test: cell-based, human. Conditions: 1 μM, 6 h (FIG. 4A). Here is the method: as §2, §3
Test [8] relates to MDM2. As to the kind of experiment: Protein expression, Western blot in MCF-7 cells. It is filed as cell-based, human. Conditions: 1 μM, 6 h (FIG. 4A). The method, then:
as §2, §3

Setting [9] is: XTT, average ± standard deviation of 2-4 independent assays, read-out: Inhibition of Cancer Cell Proliferation (IC50) MCF-7.
Setting [10] is: average ± standard deviation of 2-4 independent assays.

T1 sequence (P11388 whole entry): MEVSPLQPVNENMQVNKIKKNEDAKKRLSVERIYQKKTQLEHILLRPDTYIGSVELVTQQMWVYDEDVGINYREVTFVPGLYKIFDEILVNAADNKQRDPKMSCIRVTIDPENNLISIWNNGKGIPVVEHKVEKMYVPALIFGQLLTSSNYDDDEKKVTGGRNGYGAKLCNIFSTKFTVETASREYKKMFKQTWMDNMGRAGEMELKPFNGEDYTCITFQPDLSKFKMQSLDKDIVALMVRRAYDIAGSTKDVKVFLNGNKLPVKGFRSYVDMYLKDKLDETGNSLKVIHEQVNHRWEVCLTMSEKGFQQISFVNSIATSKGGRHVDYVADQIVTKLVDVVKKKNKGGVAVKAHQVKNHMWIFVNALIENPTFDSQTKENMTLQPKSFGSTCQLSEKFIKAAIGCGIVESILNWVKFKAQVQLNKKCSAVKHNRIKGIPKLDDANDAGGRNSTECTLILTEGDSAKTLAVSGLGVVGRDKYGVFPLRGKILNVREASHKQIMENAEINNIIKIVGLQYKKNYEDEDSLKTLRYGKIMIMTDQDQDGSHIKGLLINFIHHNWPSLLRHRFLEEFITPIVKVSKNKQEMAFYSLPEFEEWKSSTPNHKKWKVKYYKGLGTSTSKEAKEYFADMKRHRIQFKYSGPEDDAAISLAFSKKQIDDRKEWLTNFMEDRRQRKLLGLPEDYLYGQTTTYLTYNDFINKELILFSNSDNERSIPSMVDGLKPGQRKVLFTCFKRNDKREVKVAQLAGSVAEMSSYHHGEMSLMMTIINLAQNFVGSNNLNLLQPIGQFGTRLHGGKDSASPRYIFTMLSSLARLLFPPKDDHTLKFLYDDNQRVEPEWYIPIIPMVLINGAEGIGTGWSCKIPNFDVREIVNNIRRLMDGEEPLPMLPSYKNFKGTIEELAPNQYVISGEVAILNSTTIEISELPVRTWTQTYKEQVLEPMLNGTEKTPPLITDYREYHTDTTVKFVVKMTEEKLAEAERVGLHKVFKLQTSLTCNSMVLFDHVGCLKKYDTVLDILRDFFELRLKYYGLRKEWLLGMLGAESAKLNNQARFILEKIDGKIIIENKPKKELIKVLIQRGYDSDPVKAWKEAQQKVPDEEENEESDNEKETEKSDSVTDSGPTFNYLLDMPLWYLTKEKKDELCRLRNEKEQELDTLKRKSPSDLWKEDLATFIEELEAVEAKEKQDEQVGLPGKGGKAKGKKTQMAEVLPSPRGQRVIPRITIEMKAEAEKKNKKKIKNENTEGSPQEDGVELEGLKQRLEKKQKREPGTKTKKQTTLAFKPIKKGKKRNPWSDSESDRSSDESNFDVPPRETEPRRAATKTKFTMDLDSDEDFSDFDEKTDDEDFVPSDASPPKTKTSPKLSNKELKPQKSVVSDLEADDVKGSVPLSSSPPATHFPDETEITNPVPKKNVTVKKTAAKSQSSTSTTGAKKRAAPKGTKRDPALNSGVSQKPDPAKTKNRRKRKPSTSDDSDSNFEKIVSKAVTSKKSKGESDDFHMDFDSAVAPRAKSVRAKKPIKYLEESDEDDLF

On to `COc1cc(NS(C)(=O)=O)ccc1Nc1c2ccccc2nc2ccccc12` [m-AMSA, reference compound], for which, in test [1], the “Topoisomerase II Inhibition” value is on record as “++”. In addition, the IC50 in test [2] (setting [9]) was 21.7 µM; in test [3] (setting [10]), 8500 nM; in test [4] (setting [10]) it was 700 nM.
The matching figures for `CCNC1=CC2=NCCc3c[nH]c(c32)C1=O` [Compound 4b]: “—”, 1.3 ± 0.3 µM, 400 ± 30 nM and 3600 ± 700 nM.
Turning to `O=C1C(NCCc2c[nH]c3ccccc23)=CC2=NCCc3c[nH]c1c32` [Compound 4g], in test [1], the “Topoisomerase II Inhibition” value is “—”. In addition, the IC50 in test [2] (setting [9]) was 1.6 ± 0.2 µM; in test [3] (setting [10]), 400 ± 10 nM; in test [4] (setting [10]), 5200 ± 800 nM.
With `O=C1C(NCCc2cc(Br)c(O)c(Br)c2)=CC2=NCCc3c[nH]c1c32` [Compound 4f], the “Topoisomerase II Inhibition” value in test [1] was “+++”. Also, the “inhibition of topoisomerase II catalytic activity (in words)” value in test [1] was “comparable to etoposide and m-AMSA; also recorded: strongest inhibition”. Also, the “Growth inhibitory activity (IC50) in MCF7 cells” value in test [5] was “μM range”. Besides, the IC50 in test [5] was found to be 2720 nM; in test [2] (setting [9]), 13.2 ± 3.1 µM; in test [3] (setting [10]), 4500 ± 800 nM; in test [4] (setting [10]), 14400 ± 1200 nM. Besides, the “expression of p21” value in test [6] is “increased the expression”. Moreover, the “expression of p53” value in test [7] is listed as “increased the expression”. The “expression of MDM2” value in test [8] is reported as “increased the expression”.
`COc1cc([C@@H]2c3cc4c(cc3[C@@H](O[C@@H]3O[C@@H]5CO[C@@H](C)O[C@H]5[C@H](O)[C@H]3O)[C@H]3COC(=O)[C@H]23)OCO4)cc(OC)c1O` [Etoposide, reference compound]: the IC50 in test [2] (Homo sapiens, MCF7, Table 2, XTT, read-out: IC50 (μM) MCF-7) was 30.5 µM; in test [2] (Homo sapiens, MCF7, XTT, average ± standard deviation of 2-4 independent assays, read-out: Inhibition of Cancer Cell Proliferation (IC50) MCF-7) it was 35.6 µM; in test [3] (Homo sapiens, MDA-MB-468, average ± standard deviation of 2-4 independent assays), 13600 nM; in test [4] (Homo sapiens, HCT-116, average ± standard deviation of 2-4 independent assays), 1700 nM.
As to `Cc1ccc(S(=O)(=O)n2cc3c4c2C(=O)C(NCc2ccccc2)=CC4=NCC3)cc1` [Compound 7c], in test [1], the “Topoisomerase II Inhibition” value was “+++”. In addition, in test [1], the “inhibition of topoisomerase II catalytic activity (in words)” value was “comparable to etoposide and m-AMSA; also recorded: strongest inhibition”. The “Growth inhibitory activity (IC50) in MCF7 cells” value in test [5] is reported as “μM range”. In addition, the IC50 in test [5] came out at 1200 nM; in test [2] (setting [9]) it was 1.8 ± 0.2 µM; in test [3] (setting [10]), 1000 ± 10 nM; in test [4] (setting [10]) it was 2700 ± 1500 nM. Moreover, the “expression of p21” value in test [6] was “decreased the expression”. Moreover, the “expression of p53” value in test [7] is recorded as “increased the expression”. In addition, the “expression of MDM2” value in test [8] is “inhibited the expression”.
